Tested on: 349418-098-R-PDC complex spheroid viability
Assay: Anticancer human tumor 349418-098-R-PDC patient-derived lung adenocarcinoma cell line growth inhibition [RAS]
Conditions: for IC50: curve of first compound; for viability, T/C: stronger effect = lower value
Summary of the method: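 Agents were tested in combination matrices in half-log decrements from a top concentration at or near clinical Cmax (10 microM if undetermined). Targets were multi-cell spheroids of tumour lines plus HUVEC and MSC stromal cells.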

[1] = second compound 0.00316 µM, first compound 0.000949 µM
[2] = second compound 0.00316 µM, first compound 0.003 µM
[3] = second compound 0.00316 µM, first compound 0.00949 µM
[4] = second compound 0.00316 µM, first compound 0.03 µM
[5] = second compound 0.00316 µM, first compound 0.0949 µM
[6] = second compound 0.00316 µM, first compound 0.3 µM
[7] = second compound 0.01 µM, first compound 0.000949 µM
[8] = second compound 0.01 µM, first compound 0.003 µM
[9] = second compound 0.01 µM, first compound 0.00949 µM
[10] = second compound 0.01 µM, first compound 0.03 µM
[11] = second compound 0.01 µM, first compound 0.0949 µM
[12] = second compound 0.01 µM, first compound 0.3 µM
[13] = second compound 0.0316 µM, first compound 0.000949 µM
[14] = second compound 0.0316 µM, first compound 0.003 µM
[15] = second compound 0.0316 µM, first compound 0.00949 µM
[16] = second compound 0.0316 µM, first compound 0.03 µM
[17] = second compound 0.0316 µM, first compound 0.0949 µM
[18] = second compound 0.0316 µM, first compound 0.3 µM
[19] = second compound 0.1 µM, first compound 0.000949 µM
[20] = second compound 0.1 µM, first compound 0.003 µM
[21] = second compound 0.1 µM, first compound 0.00949 µM
[22] = second compound 0.1 µM, first compound 0.03 µM
[23] = second compound 0.1 µM, first compound 0.0949 µM
[24] = second compound 0.1 µM, first compound 0.3 µM
[25] = second compound 0.316 µM, first compound 0.000949 µM
[26] = second compound 0.316 µM, first compound 0.003 µM
[27] = second compound 0.316 µM, first compound 0.00949 µM
[28] = second compound 0.316 µM, first compound 0.03 µM
[29] = second compound 0.316 µM, first compound 0.0949 µM
[30] = second compound 0.316 µM, first compound 0.3 µM
[31] = second compound 1 µM, first compound 0.000949 µM
[32] = second compound 1 µM, first compound 0.003 µM
[33] = second compound 1 µM, first compound 0.00949 µM
[34] = second compound 1 µM, first compound 0.03 µM
[35] = second compound 1 µM, first compound 0.0949 µM
[36] = second compound 1 µM, first compound 0.3 µM
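Also: spheroids exposed to compound for seven days before viability readout.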

`CC(=O)OC12COC1CC(O)C1(C)C(=O)C(O)C3=C(C)C(OC(=O)C(O)C(NC(=O)OC(C)(C)C)c4ccccc4)CC(O)(C(OC(=O)c4ccccc4)C21)C3(C)C` (stereo unspecified) + C=CC(=O)N1CCN(c2nc(OCC3CCCN3C)nc3c(F)c(-c4nc(N)cc(C)c4C(F)(F)F)c(Cl)cc23)C(C)C1 was tested, and the IC50 (second compound 0.00316 µM) was < 31.6 nM, the IC50 (second compound 0.01 µM) was < 31.6 nM and the IC50 (second compound 0.0316 µM) was < 31.6 nM. For the same molecule, the IC50 (second compound 0.1 µM) was < 31.6 nM, the IC50 (second compound 0.316 µM) was < 31.6 nM and the IC50 (second compound 1 µM) was < 31.6 nM. The viability, T/C (second compound 0.00316 µM, first compound 0.0316 µM) was 12.6%, the viability, T/C (second compound 0.00316 µM, first compound 0.1 µM) was 17.8% and the viability, T/C (second compound 0.00316 µM, first compound 0.316 µM) was 16.3%. For the same molecule, the viability, T/C (second compound 0.00316 µM, first compound 1 µM) was 20.1%, the viability, T/C (second compound 0.00316 µM, first compound 3.16 µM) was 23.8% and the viability, T/C (second compound 0.00316 µM, first compound 10 µM) was 23.6%. For the same molecule, the viability, T/C (second compound 0.01 µM, first compound 0.0316 µM) was 12.8%, the viability, T/C (second compound 0.01 µM, first compound 0.1 µM) was 16.6% and the viability, T/C (second compound 0.01 µM, first compound 0.316 µM) was 14.5%. The viability, T/C (second compound 0.01 µM, first compound 1 µM) was 20.7%, the viability, T/C (second compound 0.01 µM, first compound 3.16 µM) was 19.3% and the viability, T/C (second compound 0.01 µM, first compound 10 µM) was 19.1%. For the same molecule, the viability, T/C (second compound 0.0316 µM, first compound 0.0316 µM) was 16.9%, the viability, T/C (second compound 0.0316 µM, first compound 0.1 µM) was 15.2% and the viability, T/C (second compound 0.0316 µM, first compound 0.316 µM) was 15.4%. For the same molecule, the viability, T/C (second compound 0.0316 µM, first compound 1 µM) was 22.6%, the viability, T/C (second compound 0.0316 µM, first compound 3.16 µM) was 22.9% and the viability, T/C (second compound 0.0316 µM, first compound 10 µM) was 26.5%. The viability, T/C (second compound 0.1 µM, first compound 0.0316 µM) was 13%, the viability, T/C (second compound 0.1 µM, first compound 0.1 µM) was 15% and the viability, T/C (second compound 0.1 µM, first compound 0.316 µM) was 16.5%. The viability, T/C (second compound 0.1 µM, first compound 1 µM) was 16.1%, the viability, T/C (second compound 0.1 µM, first compound 3.16 µM) was 24.3% and the viability, T/C (second compound 0.1 µM, first compound 10 µM) was 21.4%. For the same molecule, the viability, T/C (second compound 0.316 µM, first compound 0.0316 µM) was 16.8%, the viability, T/C (second compound 0.316 µM, first compound 0.1 µM) was 18.1% and the viability, T/C (second compound 0.316 µM, first compound 0.316 µM) was 18.2%. The viability, T/C (second compound 0.316 µM, first compound 1 µM) was 18.2%, the viability, T/C (second compound 0.316 µM, first compound 3.16 µM) was 21.6% and the viability, T/C (second compound 0.316 µM, first compound 10 µM) was 25.6%. The viability, T/C (second compound 1 µM, first compound 0.0316 µM) was 13.8%, the viability, T/C (second compound 1 µM, first compound 0.1 µM) was 12% and the viability, T/C (second compound 1 µM, first compound 0.316 µM) was 18.8%. The viability, T/C (second compound 1 µM, first compound 1 µM) was 20.2%, the viability, T/C (second compound 1 µM, first compound 3.16 µM) was 20.2% and the viability, T/C (second compound 1 µM, first compound 10 µM) was 25.8%.

In the case of `CC1(C)CCC(Nc2ncc(C(F)(F)F)c(-c3c[nH]c4c(P(C)(C)=O)c(C#N)ccc34)n2)CN1` (stereo unspecified) + C=CC(=O)N1CCN(c2nc(OCC3CCCN3C)nc3c(F)c(-c4nc(N)cc(C)c4C(F)(F)F)c(Cl)cc23)C(C)C1, the IC50 (second compound 0.00316 µM) is reported as 1.25 nM, the IC50 (second compound 0.01 µM) is reported as 1.19 nM and the IC50 (second compound 0.0316 µM) is reported as < 0.949 nM. The IC50 (second compound 0.1 µM) was 1.07 nM, the IC50 (second compound 0.316 µM) was 1.16 nM and the IC50 (second compound 1 µM) was 1.27 nM. The viability, T/C [1] was 57.1%, the viability, T/C [2] was 27.2% and the viability, T/C [3] was 15.7%. The viability, T/C [4] was 9.16%, the viability, T/C [5] was 9.76% and the viability, T/C [6] was 8.19%. For the same molecule, the viability, T/C [7] was 56.4%, the viability, T/C [8] was 24.6% and the viability, T/C [9] was 16.1%. It also gave a viability, T/C [10] of 9.39%, a viability, T/C [11] of 12.1% and a viability, T/C [12] of 7.38%. It also gave a viability, T/C [13] of 44%, a viability, T/C [14] of 23.3% and a viability, T/C [15] of 18.3%. It also gave a viability, T/C [16] of 11.6%, a viability, T/C [17] of 11.7% and a viability, T/C [18] of 8.91%. For the same molecule, the viability, T/C [19] was 53.1%, the viability, T/C [20] was 25.3% and the viability, T/C [21] was 12.4%. The viability, T/C [22] was 14.6%, the viability, T/C [23] was 13.2% and the viability, T/C [24] was 8.82%. The viability, T/C [25] was 54.9%, the viability, T/C [26] was 29.1% and the viability, T/C [27] was 14.6%. It also gave a viability, T/C [28] of 12.8%, a viability, T/C [29] of 13.3% and a viability, T/C [30] of 9.31%. It also gave a viability, T/C [31] of 58.9%, a viability, T/C [32] of 24.2% and a viability, T/C [33] of 15.7%. The viability, T/C [34] was 14.2%, the viability, T/C [35] was 10.3% and the viability, T/C [36] was 7.97%.

Molecule `CCc1c2c(nc3ccc(O)cc13)-c1cc3c(c(=O)n1C2)COC(=O)[C@]3(O)CC` + C=CC(=O)N1CCN(c2nc(OCC3CCCN3C)nc3c(F)c(-c4nc(N)cc(C)c4C(F)(F)F)c(Cl)cc23)C(C)C1 has an IC50 (second compound 0.00316 µM) of 0.951 nM, an IC50 (second compound 0.01 µM) of 1.8 nM and an IC50 (second compound 0.0316 µM) of 1.75 nM. The IC50 (second compound 0.1 µM) was 0.985 nM, the IC50 (second compound 0.316 µM) was 1.2 nM and the IC50 (second compound 1 µM) was 1.69 nM. The viability, T/C [1] was 50%, the viability, T/C [2] was 28.8% and the viability, T/C [3] was 6.39%. The viability, T/C [4] was 4.43%, the viability, T/C [5] was 3.41% and the viability, T/C [6] was 2.43%. For the same molecule, the viability, T/C [7] was 69.1%, the viability, T/C [8] was 35% and the viability, T/C [9] was 7.67%. The viability, T/C [10] was 4.23%, the viability, T/C [11] was 2.64% and the viability, T/C [12] was 1.87%. The viability, T/C [13] was 70.9%, the viability, T/C [14] was 31.7% and the viability, T/C [15] was 11.7%. The viability, T/C [16] was 4.13%, the viability, T/C [17] was 2.62% and the viability, T/C [18] was 2.07%. It also gave a viability, T/C [19] of 50.8%, a viability, T/C [20] of 27.1% and a viability, T/C [21] of 10.5%. For the same molecule, the viability, T/C [22] was 4.6%, the viability, T/C [23] was 3.02% and the viability, T/C [24] was 2.05%. The viability, T/C [25] was 57.2%, the viability, T/C [26] was 21.9% and the viability, T/C [27] was 7.59%. The viability, T/C [28] was 4.71%, the viability, T/C [29] was 2.92% and the viability, T/C [30] was 1.94%. It also gave a viability, T/C [31] of 73.1%, a viability, T/C [32] of 26.9% and a viability, T/C [33] of 9.24%. For the same molecule, the viability, T/C [34] was 5.15%, the viability, T/C [35] was 3.55% and the viability, T/C [36] was 2.46%.
